From US7879853B2, “4,6-disubstituted pyrimidines and their use as protein kinase inhibitors” (Bayer Schering Pharma AG, priority 2004, dated 2011)

Key:
MCF7 cells = experiment: Cellular proliferation/cytotoxicity assay (Alamar Blue), MCF7; format: cell-based; settings: Homo sapiens; MCF7, 48 hours, Alamar Blue (Resazurin); read-out: Anti-proliferative/cytotoxic activity: IC50 MCF7
Description: (§1) The anti-proliferative activity of the compounds as described herein, is evaluated using MCF7 and MDA-MB-468 (ATCC HTB-22 and HTB-132) cell lines and the Alamar Blue (Resazurin) cell viability assay (O'Brien et al. Eur J Biochem 267, 5421-5426, 2000). Resazurin is reduced to the fluorescent rescrufin by cellular dehydrogenase activity, correlating with viable, proliferating cells. Test compounds are dissolved as 10 mM solutions in DMSO and subsequently diluted. MCF7 or […] cells were seeded into 96 well flat bottom plates at a density of 10000 cells/well (MCF7) or 5000 cells/well (MDA-MB-468) in a volume of 200 μl/well. 24 hours after seeding, 1 μl each of the compound dilutions are added into each well of the 96 well plates. Each compound dilution is tested as at least as duplicates. Wells containing untreated control cells were filled with 200 μl DMEM containing 0.5% v:v DMSO. The cells are then incubated with the substances for 48 hours at 37° C. in a humidified atmosphere containing 5% carbon dioxide. To determine cell viability, 20 μl of a Resazurin solution (Sigma; 90 mg/l) are added. After 4 hours incubation at 37° C. the fluorescence is measured at an extinction of 544 nm and an emission of 590 nm (Wallac Victor2; Perkin Elmer, USA). For the calculation of the cell viability the emission value from untreated cells is set as 100% viability and the emission rates of treated cells are set in relation to the values of untreated cells. Viabilities are expressed as % values. The corresponding IC50 values of the compounds for cytotoxic activity are determined from the concentration-effect curves by means of non-linear regression. The analysis of the data is performed using a biostatistical program (GraphPad Prism, USA).

MDA-MB-468 cells = experiment: Cellular proliferation/cytotoxicity assay (Alamar Blue), MDA-MB-468; format: cell-based; settings: Homo sapiens; MDA-MB-468, 48 hours, Alamar Blue (Resazurin); read-out: Anti-proliferative/cytotoxic activity: IC50 MDA468
Description: as §1

GST-ΔPH-Akt1 = biological target: T1, GST-ΔPH-Akt1 (Homo sapiens, UniProt P31749); experiment: Biochemical ΔPH Akt1 assay (flashplate, 33P-ATP, histone 2B); settings: GST-ΔPH-Akt1, histone 2B substrate, 100 nM ATP, 80 minutes at 30° C.; read-out: Akt inhibition: IC50 (inhibition of deltaPHAkt1)
T1 construct: named GST-deltaPH-Akt1; 107480aa; cloned in the pAcG1 vector; made in house; host or cells: SF9 insect cells (pAcG1 vector), co-expressed with PDK1
Source text: For the biochemical assay ΔPHAkt1 was used devoid of its PH domain as a GST fusion protein (named GST-deltaPH-Akt1; 107480aa; cloned in the pAcG1 vector (BD Biosciences Pharmingen)), co-expressed with PDK1 in SF9 insect cells. The protein was purified using glutathion-affinity chromatography by standard protocols.
In order to study the inhibition of Akt according to the invention, a flashplate-based assay has been developed.
The Akt1 assay is a biochemical assay using Akt1 devoid of its PH domain and co-expressed with PDK1 in insect cells. The GST-ΔPH-Akt1 assay is run in 96 well plates by incubating 100 ng/well GST-ΔPH-Akt1, 100 ng/well histone 2B (Roche, #223514) as substrate, 10 μl of compound of invention (test compounds were dissolved as 10 mM solutions in dimethylsulfoxide (DMSO) and subsequently diluted) and 100 nM ATP (including ^33P-ATP) in 100 μl of reaction buffer ([…], pH7.5; 3 mM MgCl2; 3 mM MnCl2; 3 μM Na-Orthovanadat; 1 mM DTT; 1 μg/ml PEG8000) for 80 minutes at 30° C. The reactions are terminated by adding 100 μl stopping buffer (2% H3PO4 for 5 minutes) and are washed 3 times by using washing buffer (0.9% NaCl). Relying on the incorporation of ^33P into the protein substrate histone 2B, the detection is based on the adhesion of the phosphorylated protein to the surface of scintillator-coated flash plates (NEN, USA; #SMP-200). This phosphorylation is measured by counting the plate for 60 sec. using a plate reader (Wallac Microbeta; Perkin Elmer, USA). The analysis of the data is performed using a biostatistical program (GraphPad Prism, USA).

T1 sequence (P31749 107-480 limits assumed, stated change not applied): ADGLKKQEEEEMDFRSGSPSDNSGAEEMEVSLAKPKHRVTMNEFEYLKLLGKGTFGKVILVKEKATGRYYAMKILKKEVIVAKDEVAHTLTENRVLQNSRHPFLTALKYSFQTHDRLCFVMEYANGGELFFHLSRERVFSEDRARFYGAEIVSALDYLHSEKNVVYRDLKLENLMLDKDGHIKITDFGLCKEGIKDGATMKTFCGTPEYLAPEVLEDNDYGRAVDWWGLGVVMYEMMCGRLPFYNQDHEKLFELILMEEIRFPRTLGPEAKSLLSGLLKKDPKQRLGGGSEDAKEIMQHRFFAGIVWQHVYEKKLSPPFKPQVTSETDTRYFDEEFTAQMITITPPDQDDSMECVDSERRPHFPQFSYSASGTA

| Compound | melting point | IC50 (MCF7 cells) [µM] | IC50 (MDA-MB-468 cells) [µM] | IC50 (GST-ΔPH-Akt1) [µM] |
| --- | --- | --- | --- | --- |
| CNCc1ccc(C(=O)Nc2ccc(Nc3cc(-c4cccc5c4oc4ccccc45)ncn3)cc2)cc1.O=C(O)C(F)(F)F [Compound 63, N-[4-(6-Dibenzofuran-4-yl-pyrimidin-4-ylamino)-phenyl]-4-methylaminomethyl-benzamide trifluoroacetate] | 130 to 140 °C | ≤ 16.6 | ≤ 6.05 |  |
| NCc1cncc(C(=O)Nc2ccc(Nc3cc(-c4cccc5c4oc4ccccc45)ncn3)cc2)c1 [Compound 74, 5-Aminomethyl-N-[4-(6-dibenzofuran-4-yl-pyrimidin-4-ylamino)-phenyl]-nicotinamide] | 184 °C (dec.) |  |  | ≤ 5 |
| N=C(N)c1cccc(C(=O)Nc2ccc(Nc3cc(-c4cccc5c4oc4ccccc45)ncn3)cc2)c1 [Compound 45, 3-Carbamimidoyl-N-[4-(6-dibenzofuran-4-yl-pyrimidin-4-ylamino)-phenyl]-benzamide] | 300 to 306 °C | ≤ 16.6 | ≤ 6.05 |  |
| O=C(Nc1ccc(Nc2cc(-c3cccc4c3oc3ccccc34)ncn2)cc1)c1cccc(N2CCCC2)c1 [Compound 6, N-[4-(6-Dibenzofuran-4-yl-pyrimidin-4-ylamino)-phenyl]-3-pyrrolidin-1-ylbenzamide] | 250 to 255 °C |  |  | ≤ 5 |
| O=C(Nc1ccc(Nc2cc(-c3cccc4c3oc3ccccc34)ncn2)cc1)c1ccncc1 [Compound 11, N-[4-(6-Dibenzofuran-4-yl-pyrimidin-4-ylamino)-phenyl]-isonicotinamide] | 283 to 295 °C |  |  | ≤ 5 |
| NCc1ccc(C(=O)Nc2ccc(Nc3cc(-c4cccc5c4oc4ccccc45)ncn3)cc2)c(F)c1 [Compound 72, 4-Aminomethyl-N-[4-(6-dibenzofuran-4-yl-pyrimidin-4-ylamino)-phenyl]-2-fluorobenzamide] | > 200 °C (dec.) |  |  | ≤ 5 |
| Nc1ccccc1C(=O)Nc1cccc(Nc2cc(-c3cccc4c3oc3ccccc34)ncn2)c1.O=C(O)C(F)(F)F [Compound 59, 2-Amino-N-[3-(6-dibenzofuran-4-yl-pyrimidin-4-ylamino)-phenyl]-benzamide trifluoroacetate] | 140 to 150 °C |  |  | ≤ 5 |
| O=C(Nc1ccc(Nc2cc(-c3cccc4c3oc3ccccc34)ncn2)cc1)c1ccc(Cl)c(Cl)c1 [Compound 9, 3,4-Dichloro-N-[4-(6-dibenzofuran-4-yl-pyrimidin-4-ylamino)-phenyl]-benzamide] | 317 to 321 °C |  |  | ≤ 5 |
| Nc1cccc(C(=O)Nc2ccc(Nc3cc(-c4cccc5c4oc4ccccc45)ncn3)cc2)c1.O=C(O)C(F)(F)F [Compound 51, 3-Amino-N-[4-(6-Dibenzofuran-4-yl-pyrimidin-4-ylamino)-phenyl]-benzamide trifluoroacetate] | 140 to 147 °C |  |  | ≤ 5 |
| Nc1ccc(C(=O)Nc2cccc(Nc3cc(-c4cccc5c4oc4ccccc45)ncn3)c2)cc1.O=C(O)C(F)(F)F [Compound 62, 4-Amino-N-[3-(6-dibenzofuran-4-yl-pyrimidin-4-ylamino)-phenyl]-benzamide trifluoroacetate] | 185 to 188 °C |  |  | ≤ 5 |
| CN(C)c1ccc(C(=O)Nc2cccc(Nc3cc(-c4cccc5c4oc4ccccc45)ncn3)c2)cc1 [Compound 42, N-[3-(6-Dibenzofuran-4-yl-pyrimidin-4-ylamino)-phenyl]-4-dimethylamino-benzamide] | > 250 °C |  |  | ≤ 5 |
| N=C(N)c1ccc(C(=O)Nc2ccc(Nc3cc(-c4cccc5c4oc4ccccc45)ncn3)cc2)cc1 [Compound 47, 4-Carbamimidoyl-N-[4-(6-dibenzofuran-4-yl-pyrimidin-4-ylamino)-phenyl]-benzamide] |  | ≤ 16.6 | ≤ 6.05 |  |
| O=C(Nc1ccc(Nc2cc(-c3cccc4c3oc3ccccc34)ncn2)cc1)c1ccc2c(c1)CCNC2.O=C(O)C(F)(F)F [Compound 78, 1,2,3,4-Tetrahydro-isoquinoline-6-carboxylic acid [4-(6-dibenzofuran-4-yl-pyrimidin-4-ylamino)-phenyl]-amide trifluoroacetate] | 146 °C | ≤ 16.6 | ≤ 6.05 | ≤ 5 |
| CN(C)Cc1ccc(C(=O)Nc2ccc(Nc3cc(-c4cccc5c4oc4ccccc45)ncn3)cc2)cc1 [Compound 12, N-[4-(6-Dibenzofuran-4-yl-pyrimidin-4-ylamino)-phenyl]-4-dimethylaminomethyl-benzamide] | 299 °C |  |  | ≤ 5 |
| NCc1cccc(C(=O)Nc2ccc(Nc3cc(-c4cccc5c4oc4ccccc45)ncn3)cc2)c1.O=C(O)C(F)(F)F [Compound 54, 3-Aminomethyl-N-[4-(6-dibenzofuran-4-yl-pyrimidin-4-ylamino)-phenyl]-benzamide trifluoroacetate] | 238 to 240 °C | ≤ 16.6 | ≤ 6.05 |  |
| N#Cc1ccc(C(=O)Nc2ccc(Nc3cc(-c4cccc5c4oc4ccccc45)ncn3)cc2)cc1 [Compound 46, 4-Cyano-N-[4-(6-dibenzofuran 4-yl-pyrimidin-4-ylamino)-phenyl]-benzamide] |  |  |  | ≤ 5 |
| NCc1ccc(C(=O)Nc2ccc(Nc3cc(-c4cccc5c4oc4ccccc45)ncn3)cc2)nc1.O=C(O)C(F)(F)F [Compound 77, 5-Aminomethyl-pyridine-2-carboxylic acid [4-(6-dibenzofuran-4-yl-pyrimidin-4-ylamino)-phenyl]-amide trifluoroacetate] | 164 to 170 °C |  |  | ≤ 5 |
| NCc1cccc(C(=O)Nc2cccc(Nc3cc(-c4cccc5c4oc4ccccc45)ncn3)c2)c1.O=C(O)C(F)(F)F [Compound 61, 3-Aminomethyl-N-[3-(6-dibenzofuran-4-yl-pyrimidin-4-ylamino)-phenyl]-benzamide trifluoroacetate] | 150 to 156 °C |  |  | ≤ 5 |
| O=C(Nc1ccc(Nc2cc(-c3cccc4c3oc3ccccc34)ncn2)cc1)c1ccc(C2CCCNC2)cc1.O=C(O)C(F)(F)F (centres unmarked) [Compound 52, N-[4-(6-Dibenzofuran-4-yl-pyrimidin-4-ylamino)-phenyl]-4-piperidin-3-yl-benzamide trifluoroacetate] | 140 to 147 °C | ≤ 16.6 | ≤ 6.05 |  |
| COCCNc1ccc(C(=O)Nc2ccc(Nc3cc(-c4cccc5c4oc4ccccc45)ncn3)cc2)cc1.O=C(O)C(F)(F)F [Compound 71, N-[4-(6-Dibenzofuran-4-yl-pyrimidin-4-ylamino)-phenyl]-4-(2-methoxyethylamino)benzamide trifluoroacetate] | > 250 °C |  |  | ≤ 5 |
| Cc1ccc(NC(=O)c2ccc(CN)cc2)cc1Nc1cc(-c2cccc3c2oc2ccccc23)ncn1.O=C(O)C(F)(F)F [Compound 67, 4-Aminomethyl-N-[3-(6-dibenzofuran-4-yl-pyrimidin-4-ylamino)-4-methyl-phenyl]-benzamide trifluoroacetate] | 180 to 185 °C |  |  | ≤ 5 |
